One may read the IC50 as the concentration at which inhibition is half-maximal. A word on the AUC(0-t): it is exposure summed from dosing to a finite time, without extrapolation to infinity. A high value points to high exposure. What is called Tmax is the time at which the peak concentration occurs. Usually half-life stands for how long it takes for the measured level to halve. Read a low half-life as fast loss. As usually defined, the bioavailability is the share of a dose that reaches the circulation, judged against a reference dose that is usually intravenous. Read a high bioavailability as much systemic uptake. The term melting point denotes the temperature, or range, at which the solid turns liquid.

The record followed here is PMC9186373, “Design, synthesis, and biological evaluation of novel carbazole derivatives as potent DNMT1 inhibitors with reasonable PK properties” (Journal of Enzyme Inhibition and Medicinal Chemistry, 2022).

The subject of data set [1] is human DNMT1. Description: ELISA EpiQuik DNA methyltransferase (DNMT) activity/inhibitor assay. The data set is classed as biochemical. To be noted: 200 nM purified DNMT1, EpiQuik kit; for Inh% at 50 μM: 50 μM compound; for Inh% at 100 μM: 100 μM compound. On the procedure:
(§1) All the compounds were first screened using an ELISA EpiQuik DNA methyltransferase (DNMT) activity/inhibitor assay kit (Epigentek). To measure the effects of the compounds on human DNMT1 activity, 200 nM purified DNMT1 was incubated with 50 µM and 100 µM of the different compounds and S-adenosylmethionine in the DNMT assay buffer in the assay plate at 37 °C for 2 h[36]. Next, every sample was incubated with the capture and detection antibody, followed by incubation with developer solution for 10 min at room temperature. The absorbance was measured at 450 nm using a POLARstar Omega microplate reader (BMG). S-Adenosylhomocysteine (AdoHcy) was used as a positive control. Methylation inhibition assays for EZH2, LSD, and G9a were performed in modified Tris, pH 9.0, buffer using AlphaLisa technology. An amount of 10 µL of the reaction system contained a corresponding concentration of SAM (Sigma) (EZH2 50 µM, LSD 50 µM, and G9a 50 µM), which was the Km value in each enzymatic reaction, plus 100 nM biotinylated peptide H3 (1–21) (synthesis by GLChina) and the relevant enzyme concentration (0.03 nM EZH2, 0.03 nM LSD, and 0.03 nM G9a). The proteins were preincubated with various compound concentrations for 15 min at room temperature before the substrate and SAM were added. After 60 min of incubation at room temperature, acceptor and donor AlphaLisa beads were added according to the manufacturer’s recommendations. The signals were read in Alpha mode with an EnSpire multimode plate reader (PerkinElmer). IC50 values were derived by fitting the data for the inhibition percentage to a dose-response curve by non-linear regression in GraphPad Prism 5.0[20].
DNMT1 inhibition test was performed on 30 candidates to verify their biochemical activities. The EpiQuik DNA methyl-transferase (DNMT) activity/inhibitor assay kit (Epigentek) was used to identify the activity of synthetic compounds.
In general terms: An ELISA detects its analyte on a solid surface through an enzyme-linked reagent.

For data set [2], the target named is DNMT1 (Homo sapiens, UniProt P26358). Description: H3-labelled radioactive methylation assay. As to conditions: H3-labeled radioactive methylation assay; 40 nM DNMT1. The format is biochemical. On the procedure:
The DNMT1 radioactive methylation inhibition assays were performed in 30 µL reactions containing 0.1 µM adenosyl-L-methionine S-[methyl-^3H] (^3H-SAM, ^15 Ci/mmol, PerkinElmer), 0.25 µg/mL poly (dI-dC)·poly (dI-dC) (Sigma), 40 nM DNMT1 in 50 mM Tris-HCl, pH 8.0, 1 mM DTT, 5% glycerol, and 100 µg/mL BSA. The proteins were preincubated with a range of compound concentrations for 15 min at room temperature before adding the substrate and [^3H] SAM. After 60 min of incubation at 37 °C, the reaction systems were transferred to a MultiScreen HTS filter plate (Millipore), and the plate was washed 3 times with doubly distilled H2O via a vacuum. The radioactivity was determined by liquid scintillation counting (MicroBeta, PerkinElmer). IC50 values were derived by fitting the data for the inhibition percentage to a dose-response curve by non-linear regression in GraphPad Prism 5.0.
To quantitatively analyse DNMT1 inhibitory effect, the H^3-labelled radioactive methylation assay was conducted to measure the methyltransferase activity of DNMT1 at a range of concentrations for these compounds.

A short description of data set [3]: PK study in SD rats. The data set is classed as in vivo. As to conditions: rat, plasma, SD male rats; for AUC(0-t) / Tmax / half-life: mean ± SD (n = 3); for bioavailability: p.o. 10 mg/kg vs i.v. 2 mg/kg, F = (AUC p.o. × Dose i.v.)/(AUC i.v. × Dose p.o.) × 100%. On the procedure: In vivo pharmacokinetic properties of WK-22, WK-23, WK-27, and DC_517 were performed by Medicilon Company, Shanghai, China. SPF-grade SD male rats (8 groups, n = 3 rats per group) with a body weight of 230–260 g were purchased from Shanghai SIPPR-BK LAB Animal Ltd., Shanghai, China, and used for the pharmacokinetic analysis of the tested compounds. All animals were deprived of food overnight after the cannulation surgery. Subsequently, the tested compounds WK-23 and DC_517 were dissolved/suspended in 5% DMSO, 10% Solutol, and 85% water, and the tested compounds WK-22 and WK-27 were dissolved/suspended in 5% DMSO, 40% PEG400, and 55% saline for intravenous administration (i.v.) and oral administration (p.o.), respectively. A final dosage of 2.0 and 10.0 mg/kg rat of the formulated compounds was administered for i.v. and p.o. purposes, respectively, and the blood samples were taken at various time points during a 24 h period. At different time points, blood samples were collected from the femoral vein. The plasma samples were obtained after centrifugation (6800 g, 6 min, 2–8 °C) and stored at −80 °C until the assay. The AUC (area under concentration-time curve) was calculated through the trapezoidal rule with extrapolation to time infinity. The concentration of the compounds in the blood was analysed by LC-MS/MS (Shimadzu liquid chromatographic system and SCIEX Triple Quad 5500+ mass spectrometer, Applied Biosystems, Ontario, Canada). The Tmax, T1/2, and Cmax value was obtained through visual inspection of the plasma concentration-time curve. The Vss value was generated from DAS 3.2.8 software. The F value of WK-23 was calculated with the formula: F = (AUC p.o. × Dose i.v.)/(AUC i.v. × Dose p.o.) × 100%.

Data set [4] relates to DNMT3A/3L. Nature of the data set: Methyltransferase enzymatic selectivity profiling, DNMT3A/3L. As to conditions: 1 - selected enzyme inhibition/DNMT1 inhibition; 50 µM. The format is biochemical. As for the experimental part: (§2) In addition to DNMT1, there are many other methyltransferases that can bind with S-adenosyl-L-methionine (SAM) to facilitate transmethylation reactions[24]^,[25]. To investigate the selectivity of these potent compounds for DNMT1, we then evaluated the inhibitory activities against DNMT1 and other important methyltransferases at the concentration of 50 µM, including DNMT3A/3L, DNMT3B/3L, and other SAM-dependent enzymes[1]^,[2]^,[26], such as EZH2[27], LSD1[28], G9a (histone H3 lysine 9 methyltransferase)[29].
(§3) Here, the selectivity of non-nucleoside DNMT1 inhibitors is somewhat predictable because other methyltransferases mentioned above catalyse different substrates and share very low homology with DNMT1, even in their catalytic domain[30–32]. Subsequently, the screened compounds were evaluated in a dose-dependent assay against HCT116 (human colon cancer cell line) and A549 (human lung carcinoma cell line).
(§4) 493 Relative selectivity index
(§5) 494 Relative selectivity index of DNMT1 is calculated by formula: DNMT1-selectivity
(§6) 495 index =1 - selected enzyme inhibition/DNMT1 inhibition. The closer
(§7) 496 that this value is to 1 or even more than 1, the better DNMT1-selectivity the of the
(§8) 498 Table S1. Relative selectivity index of DNMT1
Cpd. […]

The subject of data set [5] is DNMT3B/3L. Nature of the data set: Methyltransferase enzymatic selectivity profiling, DNMT3B/3L. To be noted: 1 - selected enzyme inhibition/DNMT1 inhibition; 50 µM. The format is biochemical. On the procedure:
as §2, §3, §4, §5, §6, §7, §8
Cpd. […]

In data set [6] the test system is EZH2. Nature of the data set: Methylation inhibition assay (AlphaLisa), EZH2. The format is biochemical. To be noted: 50 µM; for Relative selectivity index of DNMT1 vs EZH2: 1 - selected enzyme inhibition/DNMT1 inhibition. As for the experimental part: as §1, §2, §4, §5, §6, §7, §8
Cpd. […]
On the technique in general: Bead proximity is the source of the signal in Alpha formats.

The test system of data set [7] is LSD1. Description: Methylation inhibition assay (AlphaLisa), LSD1. The data set is classed as biochemical. As to conditions: 1 - selected enzyme inhibition/DNMT1 inhibition; 50 µM. As for the experimental part: as §1, §2, §4, §5, §6, §7, §8
Cpd. […]

Data set [8] concerns G9a (histone H3 lysine 9 methyltransferase). Nature of the data set: Methylation inhibition assay (AlphaLisa), G9a. The data set is classed as biochemical. As to conditions: 50 µM; for Relative selectivity index of DNMT1 vs G9a: 1 - selected enzyme inhibition/DNMT1 inhibition. As for the experimental part:
as §1, §2, §4, §5, §6, §7, §8
Cpd. […]

Sequence of DNMT1 (P26358 whole entry): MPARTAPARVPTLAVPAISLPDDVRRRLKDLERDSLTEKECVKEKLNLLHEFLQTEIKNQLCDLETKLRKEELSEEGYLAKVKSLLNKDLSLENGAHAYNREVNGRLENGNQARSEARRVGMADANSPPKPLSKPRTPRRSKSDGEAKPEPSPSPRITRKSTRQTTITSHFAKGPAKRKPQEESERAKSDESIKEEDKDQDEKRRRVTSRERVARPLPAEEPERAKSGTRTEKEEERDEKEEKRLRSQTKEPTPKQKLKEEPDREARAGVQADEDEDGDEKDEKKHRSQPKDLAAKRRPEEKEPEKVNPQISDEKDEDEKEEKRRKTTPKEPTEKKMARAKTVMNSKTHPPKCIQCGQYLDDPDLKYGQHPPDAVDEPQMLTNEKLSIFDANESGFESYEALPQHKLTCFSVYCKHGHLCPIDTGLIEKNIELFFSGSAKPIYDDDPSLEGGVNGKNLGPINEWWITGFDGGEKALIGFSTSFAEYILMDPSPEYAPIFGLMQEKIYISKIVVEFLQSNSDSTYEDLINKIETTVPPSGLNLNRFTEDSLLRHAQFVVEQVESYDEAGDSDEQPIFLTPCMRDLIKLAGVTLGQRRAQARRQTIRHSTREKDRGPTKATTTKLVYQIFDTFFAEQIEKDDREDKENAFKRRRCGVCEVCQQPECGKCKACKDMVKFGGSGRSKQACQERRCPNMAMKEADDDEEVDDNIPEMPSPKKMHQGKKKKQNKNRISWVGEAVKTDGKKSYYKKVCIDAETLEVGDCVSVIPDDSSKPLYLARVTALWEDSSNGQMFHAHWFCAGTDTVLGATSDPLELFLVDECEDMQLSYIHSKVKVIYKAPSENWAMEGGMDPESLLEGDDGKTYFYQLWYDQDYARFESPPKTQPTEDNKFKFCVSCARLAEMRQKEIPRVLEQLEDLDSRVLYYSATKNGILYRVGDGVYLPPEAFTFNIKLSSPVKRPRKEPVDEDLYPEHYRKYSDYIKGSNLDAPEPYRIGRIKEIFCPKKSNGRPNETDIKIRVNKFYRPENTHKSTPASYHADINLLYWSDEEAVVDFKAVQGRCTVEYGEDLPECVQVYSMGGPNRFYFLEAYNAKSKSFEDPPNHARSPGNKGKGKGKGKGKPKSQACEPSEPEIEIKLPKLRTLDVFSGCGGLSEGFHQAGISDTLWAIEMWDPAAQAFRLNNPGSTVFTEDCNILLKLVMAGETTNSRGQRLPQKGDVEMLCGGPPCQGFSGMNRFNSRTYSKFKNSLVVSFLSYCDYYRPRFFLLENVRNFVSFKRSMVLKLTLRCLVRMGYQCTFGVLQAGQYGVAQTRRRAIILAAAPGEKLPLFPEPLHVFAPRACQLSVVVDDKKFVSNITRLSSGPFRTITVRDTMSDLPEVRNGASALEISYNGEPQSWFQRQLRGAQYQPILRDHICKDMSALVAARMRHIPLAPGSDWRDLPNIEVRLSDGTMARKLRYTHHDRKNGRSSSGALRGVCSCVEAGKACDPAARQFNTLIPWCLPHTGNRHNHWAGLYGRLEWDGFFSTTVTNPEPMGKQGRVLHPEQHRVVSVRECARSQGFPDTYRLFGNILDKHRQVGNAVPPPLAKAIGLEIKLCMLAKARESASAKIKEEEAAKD

As to `OC(CNCCc1c[nH]c2ccccc12)COC(Cn1c2ccccc2c2ccccc21)Cn1c2ccccc2c2ccccc21` (centres unmarked) [DC_517, reference compound], in [1], the “Inh% at 50 μM” value is listed as 96% and the “Inh% at 100 μM” value was 98%. For the same compound, in [2], the IC50 came to 2.3 µM. In data set [3] (iv, i.v. (2 mg/kg)), the AUC(0-t) came to 1020 ± 60.9 ng·h/mL, the Tmax stood at 0.08 h and the half-life was 6.7 ± 0.2 h. The bioavailability in data set [3] (po) stood at 38.7 ± 2.9%. Further, in data set [3] (po, p.o. (10 mg/kg)), the exposure AUC(0-t) is 2080 ± 113 ng·h/mL, the Tmax amounted to 6 h and the half-life was 6.7 ± 0.9 h.
`Oc1ccc(CCNCC(O)Cn2c3ccccc3c3cc(F)ccc32)cc1` (centres unmarked) [WK-3, 4-(2-((3-(3-Fluoro-9H-carbazol-9-yl)-2-hydroxypropyl)amino)ethyl)phenol] displayed a melting point of 140 to 142 °C. In [1], the “Inh% at 50 μM” value is 71% and the “Inh% at 100 μM” value came out at 79%. In addition, the half-inhibitory concentration (IC50) in data set [2] was determined as 27 µM.
In the same order, the values of `CC(CO)NCC(O)Cn1c2ccccc2c2cc(F)ccc21` (centres unmarked) [WK-7, 2-((3-(3-Fluoro-9H-carbazol-9-yl)-2-hydroxypropyl)amino)propan-1-ol] are 119 to 121 °C, 67%, 83% and 9.6 µM.
In the same order, the values of `OC(CNCCc1ccc(F)cc1)Cn1c2ccc(F)cc2c2cc(F)ccc21` (centres unmarked) [WK-14, 1-(3,6-Difluoro-9H-carbazol-9-yl)-3-((4-fluorophenethyl)amino)propan-2-ol] are 114 to 116 °C, 79%, 84% and 6 µM.
In the same order, the values of `OC(CNCCc1ccccc1)Cn1c2ccc(F)cc2c2cc(F)ccc21` (centres unmarked) [WK-15, 1-(3,6-Difluoro-9H-carbazol-9-yl)-3-(phenethylamino)propan-2-ol] are 91 to 93 °C, 75%, 82% and 7.7 µM.
Take `CC(O)CNCC(O)Cn1c2ccc(F)cc2c2cc(F)ccc21` (centres unmarked) [WK-18, 1-(3,6-Difluoro-9H-carbazol-9-yl)-3-((2-hydroxypropyl)amino)propan-2-ol]: the melting point is 130 to 132 °C. In addition, in data set [1], the “Inh% at 50 μM” value is 70% and the “Inh% at 100 μM” value was 87%. Moreover, the IC50 in data set [2] worked out at 10 µM.
`CC(C)(C)NCC(O)COC(Cn1c2ccccc2c2cc(F)ccc21)Cn1c2ccccc2c2cc(F)ccc21` (centres unmarked) [WK-25, 1-((1,3-Bis(3-fluoro-9H-carbazol-9-yl)propan-2-yl)oxy)-3-(tert-butylamino)propan-2-ol] came in with a melting point of 183 to 185 °C. For the same compound, in data set [1], the “Inh% at 50 μM” value turned out to be 100% and the “Inh% at 100 μM” value was found to be 100%. The “Relative selectivity index of DNMT1 vs DNMT 3A/3L” value in [4] stood at 0.94. The “Relative selectivity index of DNMT1 vs DNMT 3B/3L” value in data set [5] is 1.44. In data set [6], the “Relative selectivity index of DNMT1 vs EZH2” value is 0.89. Besides, in data set [7], the “Relative selectivity index of DNMT1 vs LSD1” value came to 0.02. In addition, in [8], the “Relative selectivity index of DNMT1 vs G9a” value is 0.99.
`OC[C@H]1CN(CC(O)COC(Cn2c3ccccc3c3cc(F)ccc32)Cn2c3ccc(F)cc3c3cc(F)ccc32)CCN1` (stereo partly drawn) [WK-27, 1-((1-(3,6-Difluoro-9H-carbazol-9-yl)-3-(3-fluoro-9H-carbazol-9-yl)propan-2-yl)oxy)-3-((R)-3-(hydroxymethyl)piperazin-1-yl)propan-2-ol] returned a melting point of 150 to 152 °C. Moreover, in data set [1], the “Inh% at 50 μM” value worked out at 100% and the “Inh% at 100 μM” value is on record as 100%. Also, the “Relative selectivity index of DNMT1 vs DNMT 3A/3L” value in [4] is recorded as 0.03. The “Relative selectivity index of DNMT1 vs DNMT 3B/3L” value in [5] is 0.03. For the same compound, the “inhibitory activity against EZH2” value in [6] (Figure 3) is “nearly no inhibitory activities”. Also, the “Relative selectivity index of DNMT1 vs EZH2” value in data set [6] is on record as 0.9. For the same compound, in data set [7], the “Relative selectivity index of DNMT1 vs LSD1” value is on record as 0.05. For the same compound, the “inhibitory activity against G9a” value in [8] (Figure 3) is given as “nearly no inhibitory activities”. Besides, the “Relative selectivity index of DNMT1 vs G9a” value in data set [8] amounted to 0.97. Moreover, in [3] (iv, i.v. (2 mg/kg)), the area under the curve AUC(0-t) was 427 ± 60 ng·h/mL, the Tmax worked out at 0.1 h and the half-life is 11.5 ± 1.2 h. The compound further showed a bioavailability in [3] (oral) of 1.8%. Further, the bioavailability in data set [3] (po) came to 1.8 ± 1.9%. In addition, in [3] (po, p.o. (10 mg/kg)), the AUC(0-t) amounted to 28.5 ± 40 ng·h/mL, the time to peak (Tmax) is 2.7 ± 1.2 h and the half-life is 3.9 ± 2.5 h.
